PMC3038857, “Using Nuclear Receptor Activity to Stratify Hepatocarcinogens” (PLoS ONE, 2011)
Where two headings read alike, the source gives them in different places.

How the values were obtained:
[1] = system: Mouse Liver; conditions: chronic mouse study, liver; ref ToxRefDB; cited from earlier work
[2] = system: CYP2B6; test: CLZD_CYP2B6: Change in expression of CYP2B6 (primary human hepatocytes); format: cell-based; conditions: 24 hr
Method in brief: (§1)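 Primary human hepatocyte cultures were exposed to test chemicals at 5 concentrations (0.004-40 µM) for 6, 24 or 48 hr.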

[3] = system: Mouse Liver; conditions: ref ToxRefDB, cited from earlier work
[4] = system: Mouse Liver; conditions: chronic mouse study, liver; ref ToxRefDB; cited from earlier work; remark: listed apart in the source
[5] = target: T1, ESR1 (estrogen receptor 1) (Homo sapiens, UniProt P03372); test: ATG_ERa_TRANS: Factorial reporter gene assay (HepG2); format: cell-based; conditions: HepG2
T1 construct: expressed in transfected cells; host or cells: HepG2
Procedure: A multiple reporter transcription unit (MRTU) library consisting of 48 transcription factor binding sites was transfected into the HepG2 human liver hepatoma cell line. In addition to the cis-acting reporter genes (CIS), a modification of the approach was used to generate a trans-system (TRANS) with a mammalian one-hybrid assay consisting of an additional 25 MRTU library reporting the activity of nuclear receptor super-family members. […] These assays were performed by Attagene Inc. (Morrisville NC) under contract to EPA.
In addition to the cis-acting reporter genes (CIS), a modification of the approach was used to generate a trans-system (TRANS) with a mammalian one-hybrid assay consisting of an additional 25 MRTU library reporting the activity of nuclear receptor super-family members. […] Chemicals were then tested in the CIS and TRANS assays at seven concentrations starting at the MTC and followed by three-fold serial dilutions. These assays were performed by Attagene Inc. (Morrisville NC) under contract to EPA. Detailed description of the methods, data and analysis methods for this dataset will be presented in a separate publication.

[6] = system: CYP3A4; test: CLZD_CYP3A4: Change in expression of CYP3A4 (primary human hepatocytes); format: cell-based; conditions: 24 hr
Method in brief: as §1

[7] = target: T2, PPARG (peroxisome proliferator-activated receptor gamma) (Homo sapiens, UniProt P37231); test: ATG_PPARg_TRANS: Factorial reporter gene assay (HepG2); format: cell-based; conditions: HepG2
T2 construct: expressed in transfected cells; host or cells: HepG2
T2 sequence (P37231 1-505): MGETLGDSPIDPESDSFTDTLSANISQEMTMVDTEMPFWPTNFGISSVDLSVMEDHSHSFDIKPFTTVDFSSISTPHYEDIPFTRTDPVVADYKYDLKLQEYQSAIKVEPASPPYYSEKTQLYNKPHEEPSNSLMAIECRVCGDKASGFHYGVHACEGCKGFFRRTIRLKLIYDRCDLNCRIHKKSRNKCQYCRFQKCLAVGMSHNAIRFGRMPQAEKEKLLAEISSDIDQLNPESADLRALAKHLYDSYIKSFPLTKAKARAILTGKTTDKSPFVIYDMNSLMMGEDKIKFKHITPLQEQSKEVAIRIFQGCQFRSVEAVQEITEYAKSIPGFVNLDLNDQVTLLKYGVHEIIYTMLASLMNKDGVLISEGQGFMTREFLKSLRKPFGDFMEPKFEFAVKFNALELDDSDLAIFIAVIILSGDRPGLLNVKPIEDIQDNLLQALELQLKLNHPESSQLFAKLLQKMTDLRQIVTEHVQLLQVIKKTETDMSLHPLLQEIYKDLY
Method in brief: (§2)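 Seven concentrations per chemical, three-fold dilutions down from the MTC, were tested in HepG2 hepatoma cells. Those cells carried a multiple reporter transcription unit library, read either as cis transcription-factor-site reporters or as a trans mammalian one-hybrid panel for nuclear receptors.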

[8] = target: T3, PXR (NR1I2) (Homo sapiens, UniProt O75469); test: ATG_PXRE_CIS: Factorial reporter gene assay (HepG2); format: cell-based; parameters: endogenous in cells; host or cells: HepG2; conditions: HepG2
T3 sequence (O75469 1-434): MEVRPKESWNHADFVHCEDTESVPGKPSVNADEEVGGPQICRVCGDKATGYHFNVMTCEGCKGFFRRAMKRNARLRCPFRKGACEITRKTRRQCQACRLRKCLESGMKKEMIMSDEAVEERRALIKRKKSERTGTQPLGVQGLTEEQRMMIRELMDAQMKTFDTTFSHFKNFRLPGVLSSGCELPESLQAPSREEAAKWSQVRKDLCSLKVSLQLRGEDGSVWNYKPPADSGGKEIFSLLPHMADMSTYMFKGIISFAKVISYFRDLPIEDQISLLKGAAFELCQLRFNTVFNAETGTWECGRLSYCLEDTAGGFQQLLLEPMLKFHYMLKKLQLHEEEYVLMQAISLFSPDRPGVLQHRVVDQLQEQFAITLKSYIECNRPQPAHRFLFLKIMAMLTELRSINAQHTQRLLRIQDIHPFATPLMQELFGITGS
Method in brief: as §2

[9] = target: T3, PXR (NR1I2); test: ATG_PXR_TRANS: Factorial reporter gene assay (HepG2); format: cell-based; parameters: endogenous in cells; host or cells: HepG2; conditions: HepG2
Method in brief: as §2

[10] = system: CYP1A2; test: CLZD_CYP1A2: Change in expression of CYP1A2 (primary human hepatocytes); format: cell-based; conditions: 24 hr
Method in brief: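 Five-point concentration series (0.004-40 µM) applied to primary human hepatocytes; 6/24/48 hr timepoints; transcript quantified by multiplexed nuclease protection.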

[11] = system: Rat Liver; conditions: ref ToxRefDB, cited from earlier work
[12] = system: Rat Liver; conditions: ref ToxRefDB, cited from earlier work; remark: listed apart in the source
[13] = target: T3, PXR (NR1I2); test: NVS_NR_hPXR: Human PXR Fluormone PXR (SXR) green (cell-free HTS); format: binding
Method in brief: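 Cell-free biochemical binding assays; chemicals first screened at a single concentration of 25 […] M in duplicate wells. Signals normalised to same-plate solvent controls as percent of neutral control, and AC50 values came from Hill-equation fits of concentration-response curves.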

[14] = system: Rat Liver; conditions: ref ToxRefDB, cited from earlier work; remark: listed apart in the source
[15] = system: CYP1A1; test: CLZD_CYP1A1: Change in expression of CYP1A1 (primary human hepatocytes); format: cell-based; conditions: 24 hr
Method in brief: as §1

[16] = system: ABCB1; test: CLZD_ABCB1: Change in expression of ABCB1 (primary human hepatocytes); format: cell-based; conditions: 24 hr
Procedure: This is a collection of multiplexed gene expression assays focused on Phase I and II xenobiotic metabolizing enzymes and transporters. Human primary cell cultures were treated with chemicals at 5 concentrations (0.004-40 [drawing 42] M) for 6, 24 and 48 hr. Concentration- and time-response profiles of chemicals were measured by the expression of key nuclear receptor target genes, activities of CYP1A enzymes (EROD), and cell morphology. Fourteen gene targets were monitored by quantitative nuclease protection assay including: six representative cytochrome P-450 genes, four hepatic transporters, three Phase II conjugating enzymes, and one endogenous metabolism gene involved in cholesterol synthesis. The target genes associated with nuclear receptor pathways are as follows: [drawing 43] and [drawing 44] with [drawing 45]; [drawing 46] , [drawing 47] , [drawing 48] , [drawing 49] , [drawing 50] and [drawing 51] with [drawing 52]; [drawing 53] , [drawing 54] , [drawing 55] and [drawing 56] with [drawing 57]; [drawing 58] with [drawing 59]; and [drawing 60] with [drawing 61] . Assays were run in primary human hepatocyte cultures by CellzDirect Invitrogen Inc. (Durham, NC), in collaboration with EPA.
Multiplexed Gene Expression in Human Primary Hepatocytes: This is a collection of multiplexed gene expression assays focused on Phase I and II metabolic enzymes and transporters. […] Fourteen gene targets were monitored by quantitative nuclease protection assay: six representative cytochrome P450 genes, four hepatic transporters, three Phase II conjugating enzymes, and one endogenous metabolism gene involved in cholesterol synthesis. Cells were exposed at 5 concentrations (0.004-40 µM) for 6, 24 or 48 hr. Gene targets are sentinels for five nuclear receptor signaling pathways: AhR, CAR, PXR, FXR, and PPARα. All gene are associated with nuclear receptor pathways: CYP1A1 and CYP1A2 with AHR; ABCB1, ABCG2, CYP2B6, CYP2C9, CYP2C19 and UGT1A1 with CAR; CYP3A4, GSTA2, SLCO1B1 and SULT2A1 with PXR; HMGCS2 with PPARA; and ABCB11 with FXR. […] Detailed description of the methods, data and analysis methods for this dataset will be presented in a separate publication.

T1 sequence (P03372 whole entry): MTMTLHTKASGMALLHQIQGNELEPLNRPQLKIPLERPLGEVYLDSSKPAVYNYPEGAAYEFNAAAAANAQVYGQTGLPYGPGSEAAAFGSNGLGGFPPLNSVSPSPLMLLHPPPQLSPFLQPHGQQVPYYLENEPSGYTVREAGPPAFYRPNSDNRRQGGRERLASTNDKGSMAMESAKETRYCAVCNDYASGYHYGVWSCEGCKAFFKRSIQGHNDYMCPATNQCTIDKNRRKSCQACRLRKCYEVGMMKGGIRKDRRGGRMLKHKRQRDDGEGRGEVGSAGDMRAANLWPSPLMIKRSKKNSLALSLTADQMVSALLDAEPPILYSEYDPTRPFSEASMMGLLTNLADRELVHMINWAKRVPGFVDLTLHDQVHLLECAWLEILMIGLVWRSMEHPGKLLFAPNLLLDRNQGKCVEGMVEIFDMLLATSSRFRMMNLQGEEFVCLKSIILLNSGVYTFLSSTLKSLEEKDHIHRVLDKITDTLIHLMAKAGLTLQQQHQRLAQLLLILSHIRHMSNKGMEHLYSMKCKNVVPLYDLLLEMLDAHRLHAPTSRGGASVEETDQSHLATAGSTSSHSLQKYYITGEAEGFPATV

For CCCCC(CC)CN1C(=O)C2C3C=CC(C3)C2C1=O (centres unmarked) [row 212], the CHR_Mouse_Liver_3_NeoplasticLesion [1] is given as 6, the CLZD_CYP2B6_24 [2] is given as 5.005 and the CHR_Mouse_Liver_1_AnyLesion ([3]; chronic mouse study, liver) is given as 6. For the same compound, the CHR_Mouse_Liver_2_PreneoplasticLesion [4] was 6, the ATG_ERa_TRANS [5] was 4.328 and the CLZD_CYP3A4_24 [6] was 4.752. The ATG_PPARg_TRANS [7] was 4.284, the ATG_PXRE_CIS [8] was 5.06 and the ATG_PXR_TRANS [9] was 4.745. For the same compound, the CLZD_CYP1A2_24 [10] was 5.284, the CHR_Rat_Liver_2_PreneoplasticLesion ([11]; chronic rat study, liver) was 6 and the CHR_Rat_Liver_1_AnyLesion ([12]; chronic rat study, liver) was 6. The NVS_NR_hPXR [13] was 4.582, the CHR_Rat_Liver_3_NeoplasticLesion ([14]; chronic rat study, liver) was 0 and the CLZD_CYP1A1_24 [15] was 4.883.
In the case of CC(C)(C)[C@H](O)[C@H](Cc1ccc(Cl)cc1)n1cncn1 [r235], the CLZD_CYP2B6_24 [2] is listed as 5.403, the CHR_Mouse_Liver_1_AnyLesion ([3]; mouse, chronic study) is listed as 6 and the ATG_PXRE_CIS [8] is listed as 4.824. For the same compound, the CHR_Rat_Liver_2_PreneoplasticLesion ([11]; rat, chronic study) was 0, the CHR_Rat_Liver_1_AnyLesion ([12]; rat, chronic study) was 6 and the CHR_Rat_Liver_3_NeoplasticLesion ([14]; rat, chronic study) was 0. The CLZD_ABCB1_24 [16] was 5.316 and the CLZD_CYP1A1_24 [15] was 5.242.
